35 compounds from US9012443B2 (Amgen Inc., priority 2011, dated 2015) can be followed below.

Broadly, the IC50 is the midpoint of a concentration-inhibition curve.

Assay [1] addresses T1, Nav 1.7 (Homo sapiens (Human), UniProt Q15858). The assay is described as follows: Nav 1.7 in vitro PX assay (PatchXpress whole cell voltage clamp). Format: cell-based. The following applies: 293 cells, human Nav1.7, partially inactivated state; read-out: Nav1.7 PX IC50 IP. The gist of the method:
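HEK293 cells stably expressing human Nav1.7, whole-cell voltage clamp on PatchXpress, held at potential giving 20–50% inactivation; current elicited by 20 msec pulse to −10 mV.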

In assay [2] the target is T1, Nav 1.7. Kind of assay: Nav 1.7 IWQ in vitro assay (IonWorks Quattro population patch-clamp). The following applies: for IC50: 293 cells stably transfected with Nav 1.7, second part of table, read-out: Nav1.7 IWQ IC50 IP. Format: cell-based. Summed up: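 HEK293 cells stably expressing Nav 1.7, recorded by automated population patch-clamp with a train of depolarizations producing increasing inactivation. Single compound concentration added during 3–8 min unclamped period, then same protocol repeated. Leak-corrected current at 26th pulse to −20 mV gave percent block (duplicate); IC50 fitted from concentration–block curves.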

T1 sequence (Q15858 whole entry): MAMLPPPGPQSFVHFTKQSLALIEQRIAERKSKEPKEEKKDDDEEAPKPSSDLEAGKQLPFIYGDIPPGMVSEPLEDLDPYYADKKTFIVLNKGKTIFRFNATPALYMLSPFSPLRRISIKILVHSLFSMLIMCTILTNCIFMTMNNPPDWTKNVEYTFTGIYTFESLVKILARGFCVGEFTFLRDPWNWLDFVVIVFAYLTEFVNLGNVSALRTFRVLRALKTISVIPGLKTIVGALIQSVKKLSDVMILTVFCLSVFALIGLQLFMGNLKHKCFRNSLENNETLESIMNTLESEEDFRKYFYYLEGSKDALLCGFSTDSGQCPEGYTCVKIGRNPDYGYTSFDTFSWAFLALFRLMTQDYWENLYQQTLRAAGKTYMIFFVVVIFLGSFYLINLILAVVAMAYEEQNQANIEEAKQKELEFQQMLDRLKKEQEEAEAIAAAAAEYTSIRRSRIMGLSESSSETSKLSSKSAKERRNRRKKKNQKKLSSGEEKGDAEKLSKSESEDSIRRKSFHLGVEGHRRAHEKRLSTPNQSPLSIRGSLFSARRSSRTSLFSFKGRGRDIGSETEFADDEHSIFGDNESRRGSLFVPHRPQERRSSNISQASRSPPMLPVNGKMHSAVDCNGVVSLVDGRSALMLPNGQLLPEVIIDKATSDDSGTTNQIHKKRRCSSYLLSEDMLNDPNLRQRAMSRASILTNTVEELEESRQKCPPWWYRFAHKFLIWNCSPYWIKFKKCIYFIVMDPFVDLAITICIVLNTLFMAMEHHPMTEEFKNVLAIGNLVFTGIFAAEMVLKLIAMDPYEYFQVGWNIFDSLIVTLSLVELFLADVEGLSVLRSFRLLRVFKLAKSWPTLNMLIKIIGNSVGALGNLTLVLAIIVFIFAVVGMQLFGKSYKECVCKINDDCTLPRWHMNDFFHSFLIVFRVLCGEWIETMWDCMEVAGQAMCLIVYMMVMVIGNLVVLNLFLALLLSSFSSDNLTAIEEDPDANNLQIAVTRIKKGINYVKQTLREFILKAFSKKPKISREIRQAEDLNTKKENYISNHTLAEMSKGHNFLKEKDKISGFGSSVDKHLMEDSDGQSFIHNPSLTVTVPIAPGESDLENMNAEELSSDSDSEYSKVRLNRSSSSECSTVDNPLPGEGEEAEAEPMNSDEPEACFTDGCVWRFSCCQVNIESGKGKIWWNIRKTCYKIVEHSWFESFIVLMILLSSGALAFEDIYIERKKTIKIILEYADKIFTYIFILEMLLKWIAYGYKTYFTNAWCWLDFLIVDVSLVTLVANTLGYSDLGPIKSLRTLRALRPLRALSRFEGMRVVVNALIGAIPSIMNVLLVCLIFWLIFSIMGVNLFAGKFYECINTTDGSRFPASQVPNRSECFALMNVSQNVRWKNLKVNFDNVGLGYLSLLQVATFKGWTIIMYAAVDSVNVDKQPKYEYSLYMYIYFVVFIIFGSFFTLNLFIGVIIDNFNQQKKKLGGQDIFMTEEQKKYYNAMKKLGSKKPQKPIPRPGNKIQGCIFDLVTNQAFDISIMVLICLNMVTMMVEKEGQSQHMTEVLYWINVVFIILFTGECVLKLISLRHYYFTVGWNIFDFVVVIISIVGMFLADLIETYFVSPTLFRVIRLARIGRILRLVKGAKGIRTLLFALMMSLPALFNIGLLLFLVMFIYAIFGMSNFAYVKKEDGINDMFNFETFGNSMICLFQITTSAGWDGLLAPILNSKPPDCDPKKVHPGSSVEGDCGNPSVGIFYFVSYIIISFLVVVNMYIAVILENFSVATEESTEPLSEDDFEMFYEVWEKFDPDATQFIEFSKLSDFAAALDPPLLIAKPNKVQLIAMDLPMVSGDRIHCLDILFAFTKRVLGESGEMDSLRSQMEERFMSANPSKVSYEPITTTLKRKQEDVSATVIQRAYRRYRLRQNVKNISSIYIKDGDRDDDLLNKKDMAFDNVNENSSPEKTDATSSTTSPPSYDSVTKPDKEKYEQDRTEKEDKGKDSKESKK

Regarding `COc1ccccc1-c1nncc2cc(S(=O)(=O)Nc3ncc(F)s3)ccc12` [Example 258], the figures for the concentration for half-maximal inhibition (IC50) at Nav 1.7 [1] and at Nav 1.7 [2] were 1050 nM and 260 nM, respectively.

With `COc1ccc(C(F)(F)F)cc1-c1nccc2cc(S(=O)(=O)Nc3nccs3)ccc12` [Example 180, 1-(2-METHOXY-5-(TRIFLUOROMETHYL)PHENYL)-N-(THIAZOL-2-YL)ISOQUINOLINE-6-SULFONAMIDE], the IC50 on Nav 1.7 [1] came to 439 nM; at Nav 1.7 [2], 40 nM.

For the compound `O=S(=O)(Nc1nccs1)c1ccc2c([C@H]3CCCN3C3CCOCC3)cccc2c1` [Example 104, (R)-5-(1-(TETRAHYDRO-2H-PYRAN-4-YL)PYRROLIDIN-2-YL)-N-(THIAZOL-2-YL)NAPHTHALENE-2-SULFONAMIDE COMPOUND WITH DIETHYLAMINE (1:1)], the 50% inhibitory concentration (IC50) at Nav 1.7 [1] was determined as 1990 nM; at Nav 1.7 [2], 80 nM.

Turning to `CN1CCC(c2cc(C(F)(F)F)ccc2-c2cccc3cc(S(=O)(=O)Nc4ccncn4)ccc23)CC1` [Example 116], the IC50 is 623 nM on Nav 1.7 [1] and 70 nM on Nav 1.7 [2].

For the compound `O=S(=O)(Nc1ccncn1)c1ccc2c(OCc3ncoc3-c3ccccc3)nccc2c1` [Example 130, 1-((5-PHENYLOXAZOL-4-YL)METHOXY)-N-(PYRIMIDIN-4-YL)ISOQUINOLINE-6-SULFONAMIDE], the concentration for half-maximal inhibition (IC50) on Nav 1.7 [1] was found to be 4510 nM; on Nav 1.7 [2] it was 500 nM.

For the compound `CS(=O)(=O)c1cc(C(F)(F)F)ccc1-c1cccc2cc(S(=O)(=O)Nc3ccncn3)ccc12` [Example 117], the 50% inhibitory concentration (IC50) was determined as 2880 nM at Nav 1.7 [1] and 180 nM at Nav 1.7 [2].

As for `Cc1cc2cnn(C)c2cc1-c1nccc2cc(S(=O)(=O)Nc3ccncn3)ccc12` [Example 165], the results for the IC50 on Nav 1.7 [1] and on Nav 1.7 [2] were greater than 30000 nM and 5430 nM, respectively.

As to `O=S(=O)(Nc1nccs1)c1ccc2c(C3CCCN3C3CCOCC3)cccc2c1` (centres unmarked) [Example 102, 5-(1-(TETRAHYDRO-2H-PYRAN-4-YL)PYRROLIDIN-2-YL)-N-(THIAZOL-2-YL)NAPHTHALENE-2-SULFONAMIDE 2,2,2-TRIFLUOROACETATE], the IC50 on Nav 1.7 [1] was determined as 1540 nM; at Nav 1.7 [2] it was 110 nM.

Take `COc1cc(C#N)ccc1-c1ncc(F)c2cc(S(=O)(=O)Nc3nccs3)ccc12` [Example 214, 1-(4-CYANO-2-METHOXYPHENYL)-4-FLUORO-N-(THIAZOL-2-YL)ISOQUINOLINE-6-SULFONAMIDE]: the half-inhibitory concentration (IC50) on Nav 1.7 [1] worked out at 211 nM; on Nav 1.7 [2] it was 20 nM.

As to `O=S(=O)(Nc1nccs1)c1ccc2c(C3CCCN3Cc3ccccc3)cccc2c1` (centres unmarked) [Example 98], the IC50 on Nav 1.7 [1] stood at 13000 nM; at Nav 1.7 [2], 2220 nM.

As to `Cc1cc(C#N)ccc1-c1nccc2cc(S(=O)(=O)Nc3nccs3)ccc12` [Example 210, 1-(4-CYANO-2-METHYLPHENYL)-N-(THIAZOL-2-YL)ISOQUINOLINE-6-SULFONAMIDE 2,2,2-TRIFLUOROACETATE], the IC50 was found to be 888 nM on Nav 1.7 [1] and 140 nM on Nav 1.7 [2].

Turning to `CN(Cc1ccccc1)c1cccc2cc(S(=O)(=O)Nc3ncns3)ccc12` [Example 100, 5-(benzyl(methyl)amino)-N-(1,2,4-thiadiazol-5-yl)naphthalene-2-sulfonamide], the half-inhibitory concentration (IC50) on Nav 1.7 [1] is 1460 nM; on Nav 1.7 [2], 290 nM.

`COc1ccc(F)cc1-c1nccc2cc(S(=O)(=O)Nc3ccncn3)ccc12` [Example 148, 1-(5-FLUORO-2-METHOXYPHENYL)-N-(PYRIMIDIN-4-YL)ISOQUINOLINE-6-SULFONAMIDE]: the IC50 was determined as 2410 nM at Nav 1.7 [1] and 80 nM at Nav 1.7 [2].

Regarding `COc1cccc(F)c1-c1nccc2cc(S(=O)(=O)Nc3ccncn3)ccc12` [Example 158, 1-(2-FLUORO-6-METHOXYPHENYL)-N-(PYRIMIDIN-4-YL)ISOQUINOLINE-6-SULFONAMIDE], the IC50 on Nav 1.7 [1] came out at 5030 nM; at Nav 1.7 [2], 180 nM.

With `COc1cc(-c2ccccc2)ccc1-c1cccc2cc(S(=O)(=O)Nc3ccncn3)ccc12` [Example 115], the 50% inhibitory concentration (IC50) on Nav 1.7 [1] came to 692 nM; on Nav 1.7 [2] it was 180 nM.

`COc1cc(C(F)(F)F)ccc1-c1nc(N(C)C)cc2cc(S(=O)(=O)Nc3nccs3)ccc12` [Example 223, 3-(DIMETHYLAMINO)-1-(2-METHOXY-4-(TRIFLUOROMETHYL)PHENYL)-N-(THIAZOL-2-YL)ISOQUINOLINE-6-SULFONAMIDE]: the IC50 at Nav 1.7 [1] came out at 6520 nM; on Nav 1.7 [2], 1100 nM.

As for `COc1cc(C(F)(F)F)ccc1-c1nncc2cc(S(=O)(=O)Nc3ccncn3)ccc12` [Example 254, 1-(2-METHOXY-4-(TRIFLUOROMETHYL)PHENYL)-N-(PYRIMIDIN-4-YL)PHTHALAZINE-6-SULFONAMIDE], the IC50 at Nav 1.7 [1] turned out to be 5260 nM; on Nav 1.7 [2] it was 260 nM.

For the compound `COc1ncc(Cl)cc1-c1nccc2cc(S(=O)(=O)Nc3ccncn3)ccc12` [Example 168, 1-(5-CHLORO-2-METHOXYPYRIDIN-3-YL)-N-(PYRIMIDIN-4-YL)ISOQUINOLINE-6-SULFONAMIDE], the half-inhibitory concentration (IC50) on Nav 1.7 [1] is 1600 nM; on Nav 1.7 [2], 30 nM.

As to `O=S(=O)(Nc1ccncn1)c1ccc2c(OCCCc3ccc(Cl)cc3)nccc2c1` [Example 132, 1-(3-(4-CHLOROPHENYL)PROPOXY)-N-(PYRIMIDIN-4-YL)ISOQUINOLINE-6-SULFONAMIDE], the IC50 on Nav 1.7 [1] amounted to 7900 nM; at Nav 1.7 [2] it was 870 nM.

For the compound `COC(=O)c1cccc2cc(S(=O)(=O)Nc3ncns3)ccc12` [Example 318, METHYL 6-(N-(1,2,4-THIADIAZOL-5-YL)SULFAMOYL)-1-NAPHTHOATE], the figures for the half-maximal inhibitory concentration (IC50) at Nav 1.7 [1] and at Nav 1.7 [2] were 37400 nM and greater than 10000 nM, respectively. On Nav 1.7 [2], the “Nav1.7 Single Point Data IWQ (at […]) (%)” value was determined as 32%.

Consider `Cn1cccc1-c1nccc2cc(S(=O)(=O)Nc3nccs3)ccc12` [Example 244, 1-(1-METHYL-1H-PYRROL-2-YL)-N-(THIAZOL-2-YL)ISOQUINOLINE-6-SULFONAMIDE], for which the 50% inhibitory concentration (IC50) turned out to be 11300 nM on Nav 1.7 [1] and 1170 nM at Nav 1.7 [2].

Regarding `COc1cc(C(F)(F)F)ccc1-c1nccc2cc(S(=O)(=O)Nc3ncc(F)s3)ccc12` [Example 198, N-(5-FLUOROTHIAZOL-2-YL)-1-(2-METHOXY-4-(TRIFLUOROMETHYL)PHENYL)ISOQUINOLINE-6-SULFONAMIDE 2,2,2-TRIFLUOROACETATE], the figures for the IC50 at Nav 1.7 [1] and at Nav 1.7 [2] were 422 nM and 40 nM, respectively.

With `COc1cc(C(F)(F)F)ccc1-c1c(C#N)cnc2cc(S(=O)(=O)Nc3nccs3)ccc12` [Example 284, 3-CYANO-4-(2-METHOXY-4-(TRIFLUOROMETHYL)PHENYL)-N-(THIAZOL-2-YL)QUINOLINE-7-SULFONAMIDE], the half-maximal inhibitory concentration (IC50) on Nav 1.7 [1] amounted to 320 nM; on Nav 1.7 [2] it was 60 nM.

Consider `COc1cc(Cl)ccc1-c1ncc(C#N)c2cc(S(=O)(=O)Nc3nccs3)ccc12` [Example 241, 1-(4-chloro-2-methoxyphenyl)-4-cyano-N-(thiazol-2-yl)isoquinoline-6-sulfonamide], for which the figures for the IC50 at Nav 1.7 [1] and on Nav 1.7 [2] were 480 nM and 240 nM, respectively.

Consider `O=S(=O)(Nc1ccncn1)c1ccc2c(-c3cnn(-c4cccc(Cl)c4)c3)nccc2c1` [Example 429, 1-(1-(3-CHLOROPHENYL)-1H-PYRAZOL-4-YL)-N-(PYRIMIDIN-4-YL)ISOQUINOLINE-6-SULFONAMIDE], for which the IC50 at Nav 1.7 [1] was greater than 30000 nM. At Nav 1.7 [2], the “Nav1.7 Single Point Data IWQ (at […]) (%)” value amounted to 54.7%.

For `CN1CCC=C(c2cc(C(F)(F)F)ccc2-c2cccc3cc(S(=O)(=O)Nc4ccncn4)ccc23)C1` [Example 122], the half-maximal inhibitory concentration (IC50) was found to be 492 nM on Nav 1.7 [1] and 40 nM on Nav 1.7 [2].

`COc1cc(-c2cccc(C#N)c2)ccc1-c1nccc2cc(S(=O)(=O)Nc3ccncn3)ccc12` [Example 200, 1-(3′-CYANO-3-METHOXY-[1,1′-BIPHENYL]-4-YL)-N-(PYRIMIDIN-4-YL)ISOQUINOLINE-6-SULFONAMIDE]: the values for the half-maximal inhibitory concentration (IC50) on Nav 1.7 [1] and at Nav 1.7 [2] were 424 nM and 30 nM, respectively.

Regarding `O=S(=O)(Nc1nccs1)c1ccc2c(-c3ccc(F)cc3-c3ccncc3)nccc2c1` [Example 126, 1-(4-FLUORO-2-(PYRIDIN-4-YL)PHENYL)-N-(THIAZOL-2-YL)ISOQUINOLINE-6-SULFONAMIDE], the half-inhibitory concentration (IC50) on Nav 1.7 [1] was 2660 nM; on Nav 1.7 [2], 130 nM.

Turning to `COc1ccc(C#N)cc1-c1nccc2cc(S(=O)(=O)Nc3ccncn3)ccc12` [Example 150, 1-(5-CYANO-2-METHOXYPHENYL)-N-(PYRIMIDIN-4-YL)ISOQUINOLINE-6-SULFONAMIDE], the concentration for half-maximal inhibition (IC50) at Nav 1.7 [1] was found to be 7190 nM; on Nav 1.7 [2], 120 nM.

`COc1cc(C(F)(F)F)ccc1-c1ncnc2cc(S(=O)(=O)Nc3ncc(F)s3)ccc12` [Example 263, N-(5-FLUOROTHIAZOL-2-YL)-4-(2-METHOXY-4-(TRIFLUOROMETHYL)PHENYL)QUINAZOLINE-7-SULFONAMIDE]: the half-inhibitory concentration (IC50) at Nav 1.7 [1] is 280 nM; on Nav 1.7 [2], 10 nM.

On to `CCOc1ccccc1-c1nccc2cc(S(=O)(=O)Nc3ccncn3)ccc12` [Example 173, 1-(2-ETHOXYPHENYL)-N-(PYRIMIDIN-4-YL)ISOQUINOLINE-6-SULFONAMIDE], for which the half-maximal inhibitory concentration (IC50) on Nav 1.7 [1] was determined as 8750 nM; on Nav 1.7 [2] it was 430 nM.

In the case of `O=S(=O)(Nc1nccs1)c1ccc2c([C@@H]3CCCN3C3CCOCC3)cccc2c1` [Example 103, (S)-5-(1-(TETRAHYDRO-2H-PYRAN-4-YL)PYRROLIDIN-2-YL)-N-(THIAZOL-2-YL)NAPHTHALENE-2-SULFONAMIDE COMPOUND WITH DIETHYLAMINE (1:1)], the half-inhibitory concentration (IC50) at Nav 1.7 [1] worked out at 14500 nM; on Nav 1.7 [2] it was 1580 nM.

For `O=S(=O)(Nc1nccs1)c1ccc2c(C3CCCN3C3CCOCC3)nccc2c1` (centres unmarked) [Example 245, 1-(1-(TETRAHYDRO-2H-PYRAN-4-YL)PYRROLIDIN-2-YL)-N-(THIAZOL-2-YL)ISOQUINOLINE-6-SULFONAMIDE 2,2,2-TRIFLUOROACETATE], the IC50 stood at 30800 nM on Nav 1.7 [1] and 2220 nM on Nav 1.7 [2].

With `O=S(=O)(Nc1ncc(F)s1)c1ccc2c(-c3ccc(C(F)(F)F)cc3C3CCNCC3)cccc2c1` [Example 113], the IC50 at Nav 1.7 [1] came to 118 nM; at Nav 1.7 [2] it was 80 nM.

Regarding `O=S(=O)(Nc1ccncn1)c1ccc2c(-c3ccc(C(F)(F)F)cc3C3CCNCC3)cccc2c1` [Example 120], the values for the half-maximal inhibitory concentration (IC50) at Nav 1.7 [1] and on Nav 1.7 [2] were 125 nM and 10 nM, respectively.
